According to PubChem BioAssay (NCI):
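Exposure lasted 48 hours, with cells grown in 96-well plates and compounds tested at five concentrations. At the GI50, growth is halved. TGI marks complete inhibition of growth.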

Tests used:
Experiment in all cases: inhibition of tumour cell growth, NCI panel, 48 h
A549 NSCLC = tested on: A549 NSCLC
NCI/ADR-RES ovarian = tested on: NCI/ADR-RES ovarian
HCC-2998 colon = tested on: HCC-2998 colon
NCI-H23 lung = tested on: NCI-H23 lung
NCI-H460 lung = tested on: NCI-H460 lung
MALME-3M melanoma = tested on: MALME-3M melanoma
A498 renal = tested on: A498 renal
UACC-62 melanoma = tested on: UACC-62 melanoma
OVCAR-8 ovarian = tested on: OVCAR-8 ovarian
786-0 renal = tested on: 786-0 renal
SN12C renal = tested on: SN12C renal
T-47D breast = tested on: T-47D breast
OVCAR-4 ovarian = tested on: OVCAR-4 ovarian
SK-MEL-5 melanoma = tested on: SK-MEL-5 melanoma
ACHN renal = tested on: ACHN renal
HCT-15 colon = tested on: HCT-15 colon
U251 CNS = tested on: U251 CNS
OVCAR-5 ovarian = tested on: OVCAR-5 ovarian
LOX IMVI melanoma = tested on: LOX IMVI melanoma
TK-10 renal = tested on: TK-10 renal
RPMI-8226 leukemia = tested on: RPMI-8226 leukemia
BT-549 breast = tested on: BT-549 breast
CCRF-CEM leukemia = tested on: CCRF-CEM leukemia
EKVX NSCLC = tested on: EKVX NSCLC
HS 578T breast = tested on: HS 578T breast
SW-620 colon = tested on: SW-620 colon
SF-268 CNS = tested on: SF-268 CNS
OVCAR-3 ovarian = tested on: OVCAR-3 ovarian
DU-145 prostate = tested on: DU-145 prostate

Question: Which GI50 (A549 NSCLC) does the source give for `O=C(CC1(O)C(=O)N(Cc2ccccc2)c2ccccc21)c1ccc(C(=O)NCC2CCC3(CC2)OOC2(CCCCC2)OO3)cc1` (stereo not drawn) here?
Answer: 0.201 µM

Question: What about the TGI (A549 NSCLC) of the same compound?
Answer: 0.458 µM

Question: What about the GI50 (NCI/ADR-RES ovarian) of the same compound?
Answer: 1.18 µM

Question: And the TGI (NCI/ADR-RES ovarian)?
Answer: 3.47 µM

Question: And the GI50 (HCC-2998 colon)?
Answer: 2.3 µM

Question: What about the TGI (HCC-2998 colon) of the same compound?
Answer: 5.06 µM

Question: And the GI50 (NCI-H23 lung)?
Answer: 0.402 µM

Question: What about the TGI (NCI-H23 lung) of the same compound?
Answer: 1.28 µM

Question: What about the GI50 (NCI-H460 lung) of the same compound?
Answer: 1.29 µM

Question: What about the TGI (NCI-H460 lung) of the same compound?
Answer: 3.51 µM

Question: What about the GI50 (MALME-3M melanoma) of the same compound?
Answer: 0.566 µM

Question: And the TGI (MALME-3M melanoma)?
Answer: 2 µM

Question: What about the GI50 (A498 renal) of the same compound?
Answer: 2.42 µM

Question: And the TGI (A498 renal)?
Answer: 7.32 µM

Question: And the GI50 (UACC-62 melanoma)?
Answer: 2.2 µM

Question: And the TGI (UACC-62 melanoma)?
Answer: 5.44 µM

Question: What about the GI50 (OVCAR-8 ovarian) of the same compound?
Answer: 0.287 µM

Question: What about the TGI (OVCAR-8 ovarian) of the same compound?
Answer: 0.817 µM

Question: And the GI50 (786-0 renal)?
Answer: 0.18 µM

Question: What about the TGI (786-0 renal) of the same compound?
Answer: 0.345 µM

Question: What about the GI50 (SN12C renal) of the same compound?
Answer: 1.66 µM

Question: What about the TGI (SN12C renal) of the same compound?
Answer: 3.76 µM

Question: And the GI50 (T-47D breast)?
Answer: 1.41 µM

Question: And the TGI (T-47D breast)?
Answer: 4.04 µM

Question: What about the GI50 (OVCAR-4 ovarian) of the same compound?
Answer: 1.95 µM

Question: And the TGI (OVCAR-4 ovarian)?
Answer: 5.35 µM

Question: What about the GI50 (SK-MEL-5 melanoma) of the same compound?
Answer: 1.66 µM

Question: What about the TGI (SK-MEL-5 melanoma) of the same compound?
Answer: 3.14 µM

Question: What about the GI50 (ACHN renal) of the same compound?
Answer: 0.195 µM

Question: What about the TGI (ACHN renal) of the same compound?
Answer: 0.399 µM

Question: And the GI50 (HCT-15 colon)?
Answer: 1.76 µM

Question: And the TGI (HCT-15 colon)?
Answer: 4.76 µM

Question: What about the GI50 (U251 CNS) of the same compound?
Answer: 0.774 µM

Question: And the TGI (U251 CNS)?
Answer: 2.17 µM

Question: What about the GI50 (OVCAR-5 ovarian) of the same compound?
Answer: 1.61 µM

Question: What about the TGI (OVCAR-5 ovarian) of the same compound?
Answer: 7.52 µM

Question: What about the GI50 (LOX IMVI melanoma) of the same compound?
Answer: 0.154 µM

Question: And the TGI (LOX IMVI melanoma)?
Answer: 0.31 µM

Question: And the GI50 (TK-10 renal)?
Answer: 0.835 µM

Question: What about the TGI (TK-10 renal) of the same compound?
Answer: 2.24 µM

Question: And the GI50 (RPMI-8226 leukemia)?
Answer: 0.886 µM

Question: What about the TGI (RPMI-8226 leukemia) of the same compound?
Answer: 3.43 µM

Question: And the GI50 (BT-549 breast)?
Answer: 1.88 µM

Question: What about the TGI (BT-549 breast) of the same compound?
Answer: 4.03 µM

Question: What about the GI50 (CCRF-CEM leukemia) of the same compound?
Answer: 0.421 µM

Question: What about the TGI (CCRF-CEM leukemia) of the same compound?
Answer: 2.17 µM

Question: What about the GI50 (EKVX NSCLC) of the same compound?
Answer: 0.659 µM

Question: And the TGI (EKVX NSCLC)?
Answer: 2.04 µM

Question: What about the GI50 (HS 578T breast) of the same compound?
Answer: 2.76 µM

Question: And the TGI (HS 578T breast)?
Answer: 7.81 µM

Question: And the GI50 (SW-620 colon)?
Answer: 3.56 µM

Question: And the TGI (SW-620 colon)?
Answer: > 41.5 µM

Question: What about the GI50 (SF-268 CNS) of the same compound?
Answer: 1.85 µM

Question: What about the TGI (SF-268 CNS) of the same compound?
Answer: 4.03 µM

Question: What about the GI50 (OVCAR-3 ovarian) of the same compound?
Answer: 1.21 µM

Question: And the TGI (OVCAR-3 ovarian)?
Answer: 2.74 µM

Question: What about the GI50 (DU-145 prostate) of the same compound?
Answer: 0.25 µM

Question: And the TGI (DU-145 prostate)?
Answer: 0.625 µM
